Target: T1, aromatase (Rattus norvegicus, UniProt P22443)
T1 construct: ovarian microsomes are obtained from rats treated with pregnant mares serum gonadotropin; from tissue; host or cells: ovarian microsomes from rats treated with pregnant mares serum gonadotropin
T1 sequence (P22443 1-508): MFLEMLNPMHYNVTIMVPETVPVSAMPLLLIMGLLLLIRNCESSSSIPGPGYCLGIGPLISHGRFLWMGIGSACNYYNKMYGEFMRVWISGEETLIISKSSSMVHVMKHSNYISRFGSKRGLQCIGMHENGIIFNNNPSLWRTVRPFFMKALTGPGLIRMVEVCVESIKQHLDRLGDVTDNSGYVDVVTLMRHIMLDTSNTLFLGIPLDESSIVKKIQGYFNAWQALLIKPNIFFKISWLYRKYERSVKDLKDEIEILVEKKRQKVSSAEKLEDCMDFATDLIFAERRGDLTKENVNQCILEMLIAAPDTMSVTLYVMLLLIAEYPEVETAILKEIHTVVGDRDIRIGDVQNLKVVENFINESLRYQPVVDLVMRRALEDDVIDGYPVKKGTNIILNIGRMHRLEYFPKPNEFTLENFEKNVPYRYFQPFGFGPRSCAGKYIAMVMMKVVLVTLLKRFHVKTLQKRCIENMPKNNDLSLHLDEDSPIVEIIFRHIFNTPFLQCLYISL
Assay: Aromatase inhibition in the rat ovarian microsome assay
Assay type: biochemical
Settings: rat ovarian microsomes; substrate (androstenedione) concentration 0.1 μM
Description: In this test system, ovarian microsomes are obtained from rats treated with pregnant mares serum gonadotropin. Test compounds are added to reaction vials containing 0.1 μM 4-androstene-3,17-dione, 100,000 dpm 1,2[^3 H]-androstenedione, the microsomes and a NADPH generating system. The concentrations of the inhibitors tested ranged between 0.005 and 10 μM.

EC50: 2 µM
SMILES: c1ccc2c(c1)CCc1ccccc1C2n1ccnc1 [1-(10,11-dihydro-5H--dibenzo-[a,d]cyclohepten-5-yl)-1H--imidazole nitrate]

Source: US4757082A, “Method of inhibiting aromatase” (Eli Lilly and Company, priority 1984, dated 1988)
